Results reported in patent publication US20180008672A1, “ANTI-ACTIVIN A ANTIBODIES AND METHODS OF USE THEREOF FOR TREATING PULMONARY ARTERIAL HYPERTENSION” (Regeneron Pharmaceuticals, Inc., priority 2016, published 2018).
Marks after values point to notes of the source that are not given here.

Legend:
[1] = system: long-term rat monocrotaline in vivo model; test: long-term rat monocrotaline model, survival; parameters: species or system rat (Sprague Dawley); conditions: monocrotaline 40 mg/kg SC day 0; therapy from two weeks post-monocrotaline for 5 weeks; antibodies 40 mg/kg SC 2x/wk, macitentan 30 mg/kg PO daily; n=10
Method: To evaluate the survival benefit of anti-Activin A antibody in a pulmonary arterial hypertension model, a long-term rat monocrotaline in vivo model was used.
Six-to-seven week old Sprague Dawley rats were used. Rats were separated into treatment groups such that body weights were similar among different groups. Rats were subcutaneously administered either 40 mg/kg of monocrotaline or 5 mL/kg of saline at day 0. At 14 days post-injection, saline-injected rats were subcutaneously treated with saline at 5 mL/kg, twice a week for 5 weeks, unless they died prematurely.
The monocrotaline-injected rats were separated into 4 groups. One group (n=10) was orally administered macitentan at 30 mg/kg daily. A second group (n=10) was subcutaneously administered saline at 5 mL/kg twice a week. A third group (n=10) was subcutaneously treated with either an isotype control antibody, H4H6334P. A fourth group (n=10) was subcutaneously treated with the anti-Activin A antibody, H4H10446P2, at 40 mg/kg twice a week. These monocrotaline-treated rats were started on therapy at two weeks post-monocrotaline and continued for 5 weeks, unless the animal died prematurely.
Animals were monitored twice a day for signs of morbidity or mortality. Based on literature searches, 5-8 weeks after monocrotaline injection is typically a time where morbidity and mortality are likely. […]

[2] = system: rat model of pulmonary hypertension induced by monocrotaline; test: rat model of pulmonary hypertension induced by monocrotaline; assay type: in vivo, rat (Sprague Dawley)
Method: To further evaluate the effect of anti-Activin A antibodies in pulmonary arterial hypertension, a rat model of pulmonary hypertension induced by monocrotaline was used.
Six to seven week old Sprague Dawley rats were used. Rats were separated into treatment groups such that body weights were similar among different groups. Rats were subcutaneously administered either 40 mg/kg of monocrotaline or 5 mL/kg of saline at day 0. At 14 days post injection, saline-injected rats were orally dosed with PEG 400 (at 50:50 v/v, Affymetrix Inc., #19957) at 5 mL/kg daily for two weeks, and monocrotaline-injected rats were separated into 5 groups with a group (n=9) orally dosed with PEG 400 at 5 mL/kg daily for two weeks, another group (n=12) orally administered macintentan at 30 mg/kg daily for two weeks, and three groups that were both orally dosed with PEG 400 at 5 mL/kg daily for two weeks and subcutaneously treated with either anti-Activin A antibodies, H4H10430P (n=9), H4H10446P2 (n=11), or an isotype control antibody (n=10) at 40 mg/kg twice a week for two weeks.
At day 27, pulmonary artery size and right ventricular function and dimensions of the rats were assessed using a high frequency ultrasound system (Vevo 2100, VisualSonics). For the assessment, rats were anesthetized (with 1.5% isoflurane at a rate of 1.0 cc/mL of medical grade air) and their temperature was monitored with a rectal temperature probe and held at approximately 37° C. with a heated platform (Vevo 2100, Visualsonics) and a warming lamp. Both brightness-mode (B-mode) and motion-mode (M-mode) imaging were used. B-mode imaging of the rat heart in cross-section was used to determine pulmonary artery cross-sectional area (PA CSA) at the level of the pulmonary valve. […] was used to determine the pulsed wave velocity time integral (VTI), which is derived from the area under the curve of representative Doppler tracings of blood flow through the pulmonary artery. Right ventricular stroke volume (RV SV) was calculated from the product of PA CSA and VTI. Right ventricular cardiac output (RV CO) was calculated from the product of SV and heart rate (HR). M-mode imaging was used to determine right ventricular free wall (RVFW) thickness during diastole and systole. Animals were returned to their home cages before right ventricular pressure assessment.
Right ventricular pressure was subsequently assessed for all treatment groups. Rats were anesthetized with isoflurane and were kept at approximately 37° C. using a platform (Heated Hard Pad 1, Braintree Scientific) and circulating heated water pump (T/Pump Classic, Gaymar Industries). The neck area for each rat was prepared for surgery by depilating over the right common carotid artery and right jugular vein. An incision was made and the right jugular vein was isolated with care as to not damage the carotid artery and/or the Vagus nerve. A piece of 5-0 silk suture was placed under the isolated jugular vein to allow for retraction of the vessel cranially, then a 26-guage needle was used to introduce a hole into the jugular vein. A pressure catheter (Micro-tip catheter transducer SPR-1000, Millar Instruments, Inc.) was inserted into the opening of the jugular vein and advanced past the right atrium into the right ventricle. The catheter was connected to pressure/volume instrument (MPVS-300, Millar Instruments, Inc.) that measured heart rate as well as both diastolic and systolic right ventricular pressures. These parameters were digitally acquired using a data acquisition system (PowerLab 4/35, ADlnstruments). LabChart Pro 7.0 software (ADlnstruments) was used to analyze right ventricular pressures. Readings were quantified from a 60 second interval of the pressure tracing (following a 2 minute period of recording to allow for pressure stabilization). The parameters analyzed were RV diastolic and systolic pressures, heart rate and ventricular contractile function. […]

[3] = monocrotaline 40 mg/kg SC day 0, antibodies 40 mg/kg SC 2x/wk, macitentan 30 mg/kg PO daily from day 14 for two weeks, ultrasound day 27

For `CCCNS(=O)(=O)Nc1ncnc(OCCOc2ncc(Br)cn2)c1-c1ccc(Br)cc1` [Macitentan], the “mortality (animals that died during the study)” value [1] was “Forty”, the “PA CSA (Ave ± SEM)” value [2, 3] was 9.458 ± 0.476** mm^2 and the “Right Ventricular cardiac output (Ave ± SEM)” value [2, 3] was 127.8 ± 11.7 mL/min. The “Stroke Volume (Ave ± SEM), right ventricular” value [2, 3] was 371.6 ± 27.9 µL, the “effect on right ventricular cardiac output (in words)” value ([2]; monocrotaline exposed rats) was “partially restored cardiac output” and the “effect on PA CSA (in words)” value ([2]; monocrotaline-injected rats, FIG. 3A) was “restored PA CSA to that of saline-injected rats”. For the same compound, the “effect on right ventricular stroke volume (in words)” value ([2]; monocrotaline-injected rats, FIG. 3B) was “partially restored stroke volume”, the “effect on right ventricular hypertrophy, Fulton Index RV/(LV+S) (in words)” value ([2]; monocrotaline-injected rats, FIG. 3C) was “did not lessen right ventricular hypertrophy” and the “effect on elevation of right ventricular pressures (in words)” value ([2]; monocrotaline-injected rats, catheter-based assessment, FIG. 3D) was “none of the treatment groups (Macitentan or anti-Activin A groups) showed attenuation in the elevation of right ventricular pressures”.
